The test system of assay [1] is MRC-5 cells. Put plainly: Inhibition of fibrosis gene expression induced by LPS, RT-PCR, MRC-5 cells. The assay is classed as cell-based. Conditions: 5 μg/ml LPS, peptide 10, 50, 100, 500 μM, 3 hours, RT-PCR (FIG. 6). As to the method: MRC-5 cells (lung fibroblast cells) were seeded at 2×10^5 cells/well in a 12-well plate and used in the experiment. After culturing for 1 day with a culture medium containing 10% FBS, the culture medium was replaced with a culture medium without containing FBS to induce starvation for 4 hours. Cells of a normal group without being treated with any substances, a group treated with 5 μg/ml of LPS (Sigma Aldrich) (negative control group), groups treated with 5 μg/ml of LPS and the peptide of Production Example 1 (10, 50, 100, 500 μM), and a group treated with 5 μg/ml of LPS and 10 μM of Dexamethasone (DEX) (positive control group) were treated with the above-described active substances and drugs respectively, and then RNA was extracted after 3 hours to carry out RT-PCR. RNA was extracted from MRC-5 cells using an easy-BLUE™ Total RNA extraction kit (Qiagen, Germany). The extracted RNA was converted into cDNA using RT-PCR premix (iNtRON Biotechnology, Seongnam, Korea). After preparing a reaction mixture with PCR premix (iNtRON Biotechnology, Seongnam, Korea) and primers for each gene, PCR was carried out using a PCR machine (Eppendorf, Germany). Next, the mRNA expression pattern was determined by agarose gel electrophoresis.

Assay [2] relates to BALB/c mice. The assay can be described thus: BLM-induced pulmonary fibrosis model, cell counts in bronchoalveolar lavage fluid. The assay is classed as in vivo. Conditions: BALB/c male mice, peptide 1 mg/mouse intranasal three times a week for 14 days, 21st day (FIG. 13b). As to the method:
(§1) As shown in [Table 6] below, 8-week-old BALB/c male mice were divided into 4 groups of 5 mice each. On the 1st day, a Bleomycin solution ([…]/50 μl/mouse) was administered through the oropharynx to carry out one time of induction with BLM. Then, from the 7th day, the peptide of Production Example 1 (1 mg/mouse) was administered intranasally three times a week for 14 days, and Pirfeninone (2 mg/mouse) for a positive control group was administered orally three times a week for 14 days. On the 21st day of the induction with BLM, mice were sacrificed to obtain the bronchoalveolar lavage fluid and the lung tissue, which were used in the next analysis.
The mouse subjected to the animal experiment was anesthetized, and then the treatment area was disinfected with 70% ethanol. […] The separated cells were resuspended in 0.5 ml of PBS, subsequently diluted with trypan blue solution at a 1:1 ratio, and then the total number of cells was counted using a hematocytometer. […] After staining, cells were observed and counted through a microscope, and then the number of immune cells with respect to the total number of cells was calculated to show the results as a graph. […]

In assay [3] the test system is BALB/c mice. Put plainly: LPS-induced acute lung inflammation model, cell counts in bronchoalveolar lavage fluid. The assay is classed as in vivo. Conditions: BALB/c female mice, LPS 10 μg intranasal, peptide 0.5 mg, 1 mg intranasal 1 hour after LPS, 24 hours (FIG. 10a, 10b). As to the method: BALB/c mice (Female/7W) were used in animal experiments, and an acute lung inflammation model was established by injection of LPS. As shown in [Table 5] below, 7-week-old BALB/c female mice were divided into 5 groups of 5 mice each, and then the experiment was carried out. On the 1st day, LPS (10 μg/50 μl/mouse) was administered intranasally to the G2 to G5 groups. 1 hour after LPS administration, the G3 and G4 groups were subjected to intranasal administration with the peptide of Production Example 1 (0.5 mg, 1 mg), and the G5 positive control group was subjected to intraperitoneal administration with Dexamethasone (100 μg). 24 hours after the administration of the active substance and the drug, the mice were sacrificed to obtain the bronchoalveolar lavage fluid and the lung tissue, which were used in the next analysis.
After anesthetizing the mouse, the treatment area was disinfected with 70% ethanol. […] The separated cells were resuspended in 0.5 ml of PBS, subsequently diluted with trypan blue solution at a 1:1 ratio, and then the total number of cells was counted using a hematocytometer. […] After staining, cells were observed and counted through a microscope, and then the number of immune cells with respect to the total number of cells was calculated to show the results as a graph.

The test system of assay [4] is MRC-5 cells. The assay can be described thus: ELISA of LPS-induced IL-6 and IL-8, MRC-5 cells. Type of assay: cell-based. Conditions: 5 μg/ml LPS, peptide 10, 50, 100, 500 μM, 72 hours, culture supernatant (FIG. 5a, 5b). As to the method:
MRC-5 cells (lung fibroblast cells) were seeded at 2×10^5 cells/well in a 12-well plate and used in the experiment. After culturing for 1 day with a culture medium containing 10% FBS, the culture medium was replaced with a culture medium without containing FBS to induce starvation for 4 hours. Cells of a normal group without being treated with any substances, a group treated with 5 μg/ml of LPS (Sigma Aldrich) (negative control group), groups treated with 5 μg/ml of LPS and the peptide of Production Example 1 (10, 50, 100, 500 μM), and a group treated with 5 μg/ml of LPS and 10μM of Dexamethasone (DEX) (positive control group) were treated with active substances and drugs respectively and then cultured for 72 hours. After cell culture, the supernatant obtained by centrifuging the culture solution at 4° C. and 3,000 rpm for 10 minutes was subjected to ELISA analysis using an IL-6 Quantikine ELISA Kit (R&D systems) and an IL-8 Quantikine ELISA kit (R&D systems) according to the method of use in the kit instructions, and then the absorbance was measured at 450 nm using a microplate reader.
(In general: An ELISA detects its analyte on a solid surface through an enzyme-linked reagent.)

A short description of assay [5]: BLM-induced pulmonary fibrosis model, body weight change. Type of assay: in vivo. Conditions: BALB/c male mice with BLM-induced pulmonary fibrosis, peptide 1 mg/mouse intranasal three times a week for 14 days from 7th day (FIG. 13a). As to the method:
as §1

In the case of “KYLLVHRPYYRR [peptide of Production Example 1]”, in the assay with MRC-5 cells [1], the “expression level of Collagen 1A1 gene” value was “decreases again the expression levels of the α-SMA and Collagen 1A1 genes in a concentration-dependent manner”; the “expression level of α-SMA gene” value was “decreases again the expression levels of the α-SMA and Collagen 1A1 genes in a concentration-dependent manner”. In addition, in the assay with BALB/c mice [2], the “number of lymphocytes in bronchoalveolar lavage fluid” value was “decreased the increased number of macrophages and the increased number of lymphocytes”; the “number of macrophages in bronchoalveolar lavage fluid” value is “decreased the increased number of macrophages”. For the same sequence, in the assay on BALB/c mice [3], the “number of macrophages in bronchoalveolar lavage fluid” value is on record as “not increased or decreased” and the “number of neutrophils in bronchoalveolar lavage fluid” value was “significantly reduced the increased number of neutrophils in a concentration-dependent manner”. Moreover, in the assay with MRC-5 cells [4], the “expression level of IL-6 (ELISA)” value was “decreased the expression levels of IL-6 and IL-8 in a concentration-dependent manner”; the “expression level of IL-8 (ELISA)” value is “decreased the expression levels of IL-6 and IL-8 in a concentration-dependent manner”. Further, the body weight result in assay [5] was “recovered again”.

The values above are taken from patent US20250213649A1, “PEPTIDE HAVING ANTI-INFLAMMATORY AND ANTI-FIBROTIC ACTIVITIES AND USE THEREOF” (CAREGEN CO., LTD., priority 2022, published 2025).
